Test results reported in patent US11958871B2, “Inhibitors of bacterial glutaminyl cyclases for use in the treatment of periodontal and related diseases” (FRAUNHOFER-GESELLSCHAFT ZUR FÖRDERUNG DER ANGEWANDTEN …, priority 2018, dated 2024).
Where two headings read alike, the source gives them in different places. Each block holds one compound with its values, some of them ahead of it.

Experiments:
Format in all cases: biochemical
[1] = biological target: PgQC (Porphyromonas gingivalis, UniProt Q7MT37); assay: Inhibitor assay for bacterial glutaminyl cyclase activity (fluorometric, H-Gln-AMC), PgQC
Method: (§1) QC activity was evaluated using H-Gln-AMC as the substrate (as previously described in Schilling et al., 2002).
(§2) The assay consists of varying concentration of the fluorogenic substrate and 0.5 U pyroglutaminyl aminopeptidase in 50 mM Tris-HCl, 50 mM NaCl at pH 8.0. After 10 minute incubation time at 30° C. reaction was initiated by addition of bacQC to a final volume of 125 μl reaction mixture. The excitation/emission wavelength was 380/460 nm. bacQC activity was determined from a standard curve of the fluorophore AMC under assay conditions. All determinations were carried out in 96 well microtiter plates (Fisher Scientific) at 30° C. using the FluoStar Optima (BMG Labtech).
(§3) For inhibitor testing, the sample composition was the same as described above, except for the addition of the putative inhibitory compound. […] Inhibitory constants were determined using different concentration of H-Gln-AMC varying from ¼ Km-2 Km. Final concentration of bacterial QC was in a range between 25 nM-50 nM.
(∘) represents reaction without inhibitor. Determinations were carried out in 50 mM Tris-HCl, 50 mM NaCl pH 8.0 and 1% (v/v) DMSO at 30° C.
(§4) The following compounds were synthesized as described in the Description of synthetic methods below. Average Ki values for the inhibition of PgQC (isolated and purified as described above), TfQC, PiQC and hQC were measured using the above inhibitor assay and are shown in. Ki refers to the average Ki values measured as described above, and Std(Ki) refers to the standard deviation of Ki.

[2] = biological target: TfQC (Tannerella forsythia, UniProt G8UMP8); assay: Inhibitor assay for bacterial glutaminyl cyclase activity (fluorometric, H-Gln-AMC), TfQC
Method: as §1, §2, §3, §4

[3] = biological target: hQC (Homo sapiens (Human), UniProt Q16769); assay: Inhibitor assay for glutaminyl cyclase activity (fluorometric, H-Gln-AMC), hQC
Method: as §1, §2, §3, §4

[4] = tested on: bacterial glutaminyl cyclases; assay: Inhibition of bacterial glutaminyl cyclases, summary statements
Method: as §3, §4

[5] = average Ki ± Std(Ki), read-out: PgQC Ki
[6] = average Ki ± Std(Ki), read-out: TfQC Ki
[7] = average Ki ± Std(Ki), read-out: hQC Ki

Chain of TfQC (G8UMP8 20-333 limits assumed): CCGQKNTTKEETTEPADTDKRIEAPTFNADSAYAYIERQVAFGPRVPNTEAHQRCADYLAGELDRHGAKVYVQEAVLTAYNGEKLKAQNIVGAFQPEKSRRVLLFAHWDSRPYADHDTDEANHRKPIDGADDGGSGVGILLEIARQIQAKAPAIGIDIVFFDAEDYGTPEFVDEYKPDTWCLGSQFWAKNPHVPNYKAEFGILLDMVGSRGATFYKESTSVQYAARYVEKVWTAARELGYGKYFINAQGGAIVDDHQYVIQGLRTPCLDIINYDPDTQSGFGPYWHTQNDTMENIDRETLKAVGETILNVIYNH
Chain of PgQC (Q7MT37 22-333 limits assumed): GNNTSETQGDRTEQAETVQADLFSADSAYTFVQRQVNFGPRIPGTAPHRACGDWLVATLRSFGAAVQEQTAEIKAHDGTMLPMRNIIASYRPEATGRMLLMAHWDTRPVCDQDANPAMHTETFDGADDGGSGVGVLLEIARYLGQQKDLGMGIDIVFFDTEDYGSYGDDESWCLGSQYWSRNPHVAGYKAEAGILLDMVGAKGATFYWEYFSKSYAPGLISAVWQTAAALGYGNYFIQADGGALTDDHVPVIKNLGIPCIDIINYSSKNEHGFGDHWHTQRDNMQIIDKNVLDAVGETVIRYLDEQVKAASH
Chain of hQC (Q16769 29-361): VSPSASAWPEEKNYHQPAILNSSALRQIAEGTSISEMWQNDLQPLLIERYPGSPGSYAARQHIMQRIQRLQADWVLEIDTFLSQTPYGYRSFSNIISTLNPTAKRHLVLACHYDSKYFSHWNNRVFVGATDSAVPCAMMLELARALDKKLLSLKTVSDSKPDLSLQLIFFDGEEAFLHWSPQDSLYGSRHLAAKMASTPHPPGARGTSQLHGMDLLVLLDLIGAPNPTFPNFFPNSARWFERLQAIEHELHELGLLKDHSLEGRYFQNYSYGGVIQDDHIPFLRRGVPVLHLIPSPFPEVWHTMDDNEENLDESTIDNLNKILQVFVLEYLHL

Structure (SMILES): c1ccc(CNc2ccc3nc[nH]c3n2)cc1 [Example 1, N-Benzylimidazo[4,5-b]pyridin-5-amine]
Ki [1, 5]: 1940 ± 318 nM
Ki ([1]; read-out: Ki, PgQC (Table 5)): 1950 nM
Ki [2, 6]: 8260 ± 361 nM
Ki ([2]; read-out: Ki, TfQC (Table 5)): 8300 nM
Ki [3, 7]: 8800 ± 127 nM
Ki ([3]; read-out: Ki, hQC (Table 5)): 8800 nM
inhibitory activity against bacterial glutaminyl cyclases (in words) [4]: significant bacQC inhibitory activity and selectivity for PgQC over hQC

Structure (SMILES): N=C(N)NCCOc1ccc(CNc2cnc3[nH]cnc3c2)cc1 [Example 17, 1-(2-(4-((Imidazo[4,5-b]pyridin-6-ylamino)methyl)-phenoxy)ethyl)guanidine]
Ki [1, 5]: 14 ± 0.1 nM
Ki [2, 6]: 123 ± 16 nM
Ki [3, 7]: 455 ± 14 nM

Structure (SMILES): CC(C)Oc1ccc(CNc2cnc3[nH]cnc3c2)cc1 [Example 18, N-[(4-Isopropoxyphenyl)methyl]-3H-imidazo[4,5-b]pyridin-6-amine]
Ki [1, 5]: 86 ± 5 nM

Structure (SMILES): c1ccc(Oc2cccc(CNc3cnc4[nH]cnc4c3)c2)cc1 [Example 19, N-[(3-Phenoxyphenyl)methyl]-3H-imidazo[4,5-b]pyridin-6-amine]
Ki [1, 5]: 15 ± 0.1 nM

Structure (SMILES): c1ccc(COc2ccc(CNc3cnc4[nH]cnc4c3)cc2)cc1 [Example 20, N-[(4-Benzyloxyphenyl)methyl]-3H-imidazo[4,5-b]pyridin-6-amine]
Ki [1, 5]: 42 ± 4 nM

Structure (SMILES): c1ccc(-c2ccc(CNc3cnc4[nH]cnc4c3)cc2)cc1 [Example 21, N-[(4-Biphenyl)methyl]-3H-imidazo[4,5-b]pyridin-6-amine]
Ki [1, 5]: 19 ± 1 nM

Structure (SMILES): COc1cc(F)c(CNc2cnc3[nH]cnc3c2)c(F)c1 [Example 22, N-[(2,6-Difluoro-4-methoxy-phenyl)methyl]-3H-imidazo[4,5-b]pyridin-6-amine]
Ki [1, 5]: 30 ± 1 nM

Structure (SMILES): COc1cc(CNc2cnc3[nH]cnc3c2)cc2c1OCO2 [Example 23, N-[(7-Methoxy-1,3-benzodioxol-5-yl)methyl]-3H-imidazo-[4,5-b]pyridin-6-amine]
Ki [1, 5]: 65 ± 13 nM

Structure (SMILES): FC1(F)Oc2ccc(CNc3cnc4[nH]cnc4c3)cc2O1 [Example 24, N-[(2,2-Difluoro-1,3-benzodioxol-5-yl)methyl]-3H-imidazo-[4,5-b]pyridin-6-amine]
Ki [1, 5]: 67 ± 1 nM

Structure (SMILES): c1ccc(-c2ccc(CNc3cnc4[nH]cnc4c3)cc2)nc1 [Example 25, N-[[4-(2-Pyridyl)phenyl]methyl]-3H-imidazo[4,5-b]pyridin-6-amine]
Ki [1, 5]: 38 ± 3 nM

Structure (SMILES): c1nc2cc(NCc3ccc(OCCN4CCOCC4)cc3)cnc2[nH]1 [Example 26, N-[[4-(2-Morpholinoethoxy)phenyl]methyl]-3H-imidazo[4,5-b]pyridin-6-amine]
Ki [1, 5]: 33 ± 1 nM

Structure (SMILES): c1nc2cc(NCc3ccc(N4CCOCC4)cc3)cnc2[nH]1 [Example 27, N-[(4-morpholinophenyl)methyl]-3H-imidazo[4,5-b]pyridin-6-amine]
Ki [1, 5]: 60 ± 2 nM

Ki ([1]; 50 mM Tris-HCl, 50 mM NaCl pH 8.0, 1% (v/v) DMSO, 30° C., read-out: Ki, inhibition of the conversion of H-Gln-AMC by PgQC): 104 nM
Structure (SMILES): O=C(c1cc(Cl)cc(Cl)c1)N1CCc2[nH]cnc2C1 [MWT-S-00431, (3,5-dichlorophenyl-1,4,6,7-tetrahydro-5H-imidazo[4,5-c]pyridin-5-yl)methanone, reference compound]
